Test results reported in patent publication US20150368248A1, “2-SUBSTITUTED-6-BIARYLMETHYLAMINO-9-CYCLOPENTYL-9H-PURINE DERIVATIVES, USE THEREOF AS MEDICAMENTS, AND PHARMACEUTICAL COMPOSITIONS” (UNIVERZITA PALACKEHO V OLOMOUCI, priority 2013, published 2015).

Tests used:
[1] = test system: HCC-1.1 (3sp); assay: MTT cytotoxicity assay (Example 30); format: cell-based; conditions: Homo sapiens, 72 h; MTT, three days after drug addition; read-out: Inhibitory concentration IC50, 3sp
[2] = test system: HCC-1.2 (3p); assay: MTT cytotoxicity assay (Example 30); format: cell-based; conditions: Homo sapiens, HCC-1.2, 72 h; MTT, three days after drug addition; read-out: Inhibitory concentration IC50, 3p
[3] = test system: HUH-7; assay: MTT cytotoxicity assay (Example 30); format: cell-based; conditions: Homo sapiens, Huh-7, 72 h; MTT, three days after drug addition; read-out: Inhibitory concentration IC50, HUH-7
[4] = test system: PLC/PRF/5; assay: MTT cytotoxicity assay (Example 30); format: cell-based; conditions: Homo sapiens, PLC-PRF-5, 72 h; MTT, three days after drug addition; read-out: Inhibitory concentration IC50, PLC/PRF/5
[5] = target: T1, CDK1/cyclin B (Homo sapiens, UniProt P06493); assay: Kinase inhibition assay, recombinant kinase, [γ-33P]ATP; format: biochemical; conditions: read-out: Kinase inhibition IC50, CDK1
T1 construct: made in house; host or cells: Sf9 insect cells (baculovirus)
T1 sequence (P06493 whole entry, species assumed): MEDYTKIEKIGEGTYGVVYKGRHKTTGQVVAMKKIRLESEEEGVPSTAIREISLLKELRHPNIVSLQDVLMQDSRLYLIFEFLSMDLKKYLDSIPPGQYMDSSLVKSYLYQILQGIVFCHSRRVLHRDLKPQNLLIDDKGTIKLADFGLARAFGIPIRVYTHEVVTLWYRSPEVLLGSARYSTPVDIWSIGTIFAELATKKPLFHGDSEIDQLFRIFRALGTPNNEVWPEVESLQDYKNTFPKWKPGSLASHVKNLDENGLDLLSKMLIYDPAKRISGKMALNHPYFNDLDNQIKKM
T1 sequence (P14635 whole entry partner, species assumed): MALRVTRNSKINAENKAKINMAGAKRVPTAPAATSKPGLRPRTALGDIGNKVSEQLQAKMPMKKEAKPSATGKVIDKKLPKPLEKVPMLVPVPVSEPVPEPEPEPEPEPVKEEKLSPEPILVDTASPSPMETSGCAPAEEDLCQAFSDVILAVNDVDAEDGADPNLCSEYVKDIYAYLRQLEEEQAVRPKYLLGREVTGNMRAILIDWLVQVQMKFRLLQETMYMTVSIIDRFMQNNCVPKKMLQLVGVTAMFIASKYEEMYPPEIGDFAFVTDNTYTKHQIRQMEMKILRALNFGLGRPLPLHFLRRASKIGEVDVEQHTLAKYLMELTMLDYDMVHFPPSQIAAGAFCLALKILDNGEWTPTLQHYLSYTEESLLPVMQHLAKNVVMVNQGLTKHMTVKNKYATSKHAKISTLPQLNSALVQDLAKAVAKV
Method: CDK2/Cyclin E kinase was produced in Sf9 insect cells via baculoviral infection and purified on a NiNTA column (Qiagen). CDK5/p35, CDK7Cyclin H/MAT1 and CDK9/Cyclin T1 was purchased from ProQinase GmbH. […] The reactions were stopped by adding 5 μL of 3% aq H3PO4. Aliquots were spotted onto P-81 phosphocellulose (Whatman), washed 3× with 0.5% aq H3PO4 and finally air-dried.
CDK1/cyclin B and CDK2/cyclin E kinases were produced in Sf9 insect cells via baculoviral infection, while CDK5/p35, CDK7/cyclin H/MAT1, and CDK9/cyclin T1 were purchased from ProQinase (Freiburg, Germany) and assayed as described previously (35). The kinase reactions were assayed with 1 mg/ml histone H1 (for CDK2 and CDK5) or (YSPTSPS)2KK peptide (for CDK7 and CDK9) in the presence of 15/0.15/1.5/1.5 […] ATP (for CDK2/CDK5/CDK7CDK9), […] [γ-^33P]ATP and of the test compound in a final volume of […]. The reaction buffer contained 60 mM HEPES-NaOH, pH 7.5, 3 mM MgCl2, 3 mM MnCl2, 3 mM Na-orthovanadate, 1.2 mM DTT, 2.5 mg/50 ml PEG20.000. The reactions were stopped by adding […] of 3% H3PO4. Aliquots were spotted onto P-81 phosphocellulose (Whatman, GE Healthcare Biosciences, Pittsburgh, USA), washed 3 times with 0.5% H3PO4 and finally air-dried. Kinase inhibition was quantified using a FLA-7000 digital image analyzer (Fujifilm, Tokyo, Japan).

[6] = test system: caspase-3/7 activity in Hep3B cell line; assay: One-step cellular caspase-3/7 activity assay; format: cell-based, human; conditions: 24 hours, 0 nM = 1.00
Procedure, shortened: (§1)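 Hep3B or PLC/PRF/5 cells, plated overnight, were exposed to compounds for 24 h. Lysis buffer containing 150 μM Ac-DEVD-AMC substrate was added, and plates were incubated at 37° C. Caspase-3/7 activity was read as AMC fluorescence (ex 346/em 442 nm) after 6 h.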

[7] = test system: caspase-3/7 activity in PLC/PRF/5 cell line; assay: One-step cellular caspase-3/7 activity assay; format: cell-based, human; conditions: 24 hours incubation, relative to 0 nM = 1.00
Procedure, shortened: as §1

[8] = test system: p53-regulated transcription in Arn8 cells; assay: p53-dependent transcriptional activity, β-galactosidase reporter; format: cell-based; conditions: 24 h incubation
Procedure, shortened: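 Arn8 melanoma cells stably carrying the p53-responsive pRGCAfoslacZ reporter, exposed to compounds for 24 h. Cells permeabilised with 0.3% Triton X-100 for 15 min, then given 80 μM 4-methylumbelliferyl-β-D-galactopyranoside. β-Galactosidase product fluorescence read after 1 h at 355/460 nm.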

Structure (SMILES) | IC50 [1] | IC50 [2] | IC50 [3] | IC50 [4] | IC50 [5] | Relative caspase-3/7 activity in Hep3B cell line ([6]; 200 nM) | Relative caspase-3/7 activity in Hep3B cell line ([6]; 400 nM) | Relative caspase-3/7 activity in Hep3B cell line ([6]; 800 nM) | Relative caspase-3/7 activity in Hep3B cell line ([6]; 1600 nM) | Relative caspase-3/7 activity in PLC/PRF/5 cell line ([7]; compound concentration 40 nM) | Relative caspase-3/7 activity in PLC/PRF/5 cell line ([7]; compound concentration 80 nM) | Relative caspase-3/7 activity in PLC/PRF/5 cell line ([7]; compound concentration 160 nM) | Relative caspase-3/7 activity in PLC/PRF/5 cell line ([7]; compound concentration 320 nM) | Relative caspase-3/7 activity in PLC/PRF/5 cell line ([7]; compound concentration 640 nM) | Relative caspase-3/7 activity in PLC/PRF/5 cell line ([7]; compound concentration 1280 nM) | Concentration of maximum activation [8] | melting point | Relative caspase-3/7 activity in Hep3B cell line ([6]; 100 nM)
NC1CCC(Nc2nc(NCc3ccc(-c4cccc(F)c4)cc3)c3ncn(C4CCCC4)c3n2)CC1 (centres unmarked) [BP12, N^2-(4-amino-cyclohexyl)-9-cyclopentyl-N^6-(3′-fluoro-biphenyl-4-ylmethyl)-9H-purine-2,6-diamine] | 0.492 µM | 0.288 µM | 0.199 µM | 0.077 µM | 0.422 µM | 1.12 | 4.20 | 7.04 | 9.85 | 0.93 | 1.27 | 3.10 | 2.95 | >5.00 | >5.00 | 986 nM | 146 to 148 °C | 
NC1CCC(Nc2nc(NCc3ccc(-c4ccoc4)cc3)c3ncn(C4CCCC4)c3n2)CC1 (centres unmarked) [BP13, N^2-(4-amino-cyclohexyl)-9-cyclopentyl-N^6-(4-furan-3-yl-benzyl)-9H-purine-2,6-diamine] | 0.613 µM | 0.602 µM | 0.339 µM | 0.076 µM | 0.202 µM | 0.95 | 1.71 | 5.65 | 7.81 | 0.99 | 1.37 | 1.72 | 2.28 | >5.00 | >5.00 | 970 nM | 154 to 156 °C | 
COc1ccccc1-c1ccc(CNc2nc(NC3CCC(N)CC3)nc3c2ncn3C2CCCC2)cc1 (centres unmarked) [BP16, N^2-(4-amino-cyclohexyl)-9-cyclopentyl-N^6-(2′-methoxy-biphenyl-4-ylmethyl)-9H-purine-2,6-diamine] | 0.767 µM | 0.58 µM | 0.363 µM | 0.129 µM | 0.301 µM | 0.93 | 1.26 | 2.82 | 7.07 | 1.01 | 0.73 | 1.15 | 2.42 | >5.00 | >5.00 | 943 nM | 178 to 180 °C | 
COc1ccccc1-c1ccc(CNc2nc(NC3CCC(N)CC3)nc3c2ncn3C2CCCC2)cn1 (centres unmarked) [BP18, N^2-(4-amino-cyclohexyl)-9-cyclopentyl-N^6-[6-(2-methoxy-phenyl)-pyridin-3-ylmethyl]-9H-purine-2,6-diamine] | 0.791 µM | 0.791 µM | 0.618 µM | 0.022 µM | 0.118 µM | 0.89 | 3.19 | 6.05 | 8.59 | 0.97 | 2.40 | >5.00 | >5.00 | >5.00 | >5.00 | 510 nM | 184 to 186 °C | 
NC1CCC(Nc2nc(NCc3ccc(-c4cccc(F)c4)nc3)c3ncn(C4CCCC4)c3n2)CC1 (centres unmarked) [BP19, N^2-(4-amino-cyclohexyl)-9-cyclopentyl-N^6-[6-(3-fluoro-phenyl)-pyridin-3-ylmethyl]-9H-purine-2,6-diamine] | 0.41 µM | 0.191 µM | 0.281 µM | 0.009 µM | 0.077 µM | 4.82 | 6.60 | 9.80 | 9.45 | 1.78 | 2.39 | >5.00 | >5.00 | >5.00 | >5.00 | 167 nM | 121 to 122 °C | 0.90
NC1CCC(Nc2nc(NCc3ccc(-c4ccccc4O)nc3)c3ncn(C4CCCC4)c3n2)CC1 (centres unmarked) [BP20, N^2-(4-amino-cyclohexyl)-9-cyclopentyl-N^6-[6-(2-hydroxy-phenyl)-pyridin-3-ylmethyl]-9H-purine-2,6-diamine] | 0.197 µM | 0.132 µM | 0.182 µM | 0.007 µM | 0.047 µM | 5.37 | 8.25 | 9.63 | 9.95 | 3.15 | 2.66 | >5.00 | >5.00 | >5.00 | >5.00 | 150 nM | 202 to 203 °C | 4.42
